The values below come from patent publication US20130059818A1, “CARBOSILANE DENDRIMERS AND THE USE THEREOF AS ANTIVIRAL AGENTS” (UNIVERSIDAD DE ALCALA DE HENARES (UAH), priority 2010, published 2013).

“Also recorded” adds a separate entry of the source.

Data set [1] relates to X4 HIV NL4.3 and R5 HIV Bal. Kind of data set: CDi, CDm and macrophages pre-treatment. Conditions: pretreated 1 h, 50 ng virus. The class given is cell-based, HIV-1. The procedure:
Once the cells were differentiated, they were washed twice with PBS and 2*10^5 CDi, 2*10^5 CDm and 10^5 macrophages were dispensed in 200 μL of complete medium in bottom p96 wells. The dendrimer were added one hour prior to the infection. After adding the viral particles (50 ng), they were incubated in culture conditions and after 3 hours the supernatant was retired and washed 4 times with PBS. The supernatant was collected after 4 days. The viral concentration was quantified by ELISA.

The test system of data set [2] is HIV (X4 and R5-tropic virus). As to the kind of experiment: Inhibition of transcytosis through HEC-1A monolayer (transwell). In kind it is cell-based. The procedure: To obtain a perfect monolayer of polarized epithelial cells, the HEC-1A were grown in complete medium on a permeable polycarbonate support of 0.4 μm pore (Costar, Cambridge, Mass.). Then, 2*10^5 cells by well were cultivated for 7 days, with media changes every 2-3 days. The dendrimer were added one hour prior to the infection. […] The viral concentration was quantified by ELISA.
To reproduce in the best possible way the role that the anionic dendrimer develop on the surface of the endometrium and to study the passage of virions through the mucosal stratified vaginal epithelium, we used transwell devices that recreate the phenomenon of transcytosis (transport of macromolecules from the extracellular space to another through the cytoplasm of a cell via an endocytic vesicle) due to the possibility of forming a perfect monolayer of adherent cells on the inside and collect information from the supernatants of the apical and basolateral side of the monolayer. […]

Data set [3] has as its system HEC-1A (human endometrial epithelial cells). Kind of data set: LDH assay in HEC-1A. In kind it is cell-based.
Source text: This technique (CytoTox 96® Non-Radioactive Cytotoxicity Assay) was used to test the damage in the cell membrane surface due to the presence of anionic peripheral groups of dendrimers. The lactate dehydrogenase (LDH) is an enzyme that is released into the cytoplasm due to cell lysis. The LDH assay, therefore, is a measure of membrane integrity, which is based on the oxidation of LDH to pyruvate and reduction of tetrazolium salts to formazan crystals by pyruvate.
1*10^5 cells/well were dispensed in 96-well plate round bottom in a volume of 100 μL of complete medium and the dendrimer was added in a volume of 100 μL, to obtain a final volume of 200 μL in the well. Controls: 1. 200 μL of complete medium without cells (background control), 2. 100 μL of cells+100 μL of complete medium, 3. 100 μL of cells+100 μL of Triton X-100 0.2% 4. 100 μL of cells+100 μL with the dendrimer to the desired concentration. Incubated in culture conditions during the first 24 h. Plate was centrifuged at 1500 rpm 10 minutes and removed 100 μL of supernatant, being careful not to take the cells. 100 μL of reaction mixture prepared at the time on the 100 μL was added of supernatant and incubated at room temperature for 30 minutes in darkness. Finally, measured at 490 nm and 690 nm reference. The cytotoxicity was obtained from the following formula: Cytotoxicity (%)=(4−2)/(3−2)*100 […]
The test system of data set [4] is TNF-alpha transcriptional activity (pTNF-luc). As to the kind of experiment: Transfection of Jurkat cells with pTNF-luc plasmid. The class given is cell-based. As to conditions: 5 and 10 micromolar, 16 hours, versus control cells without stimulating. The procedure:
Inflammation experiments: the experiments were conducted with transient transfection using plasmid indicators pTNF-luc and pNF-κB-luc containing 3 copies in tandem of site NF-κB of the promoter. The Jurkat cell line was nucleofected with the AMAXA nucleofector following the commercial house protocol “cell line nucleofector kit V” and the specific programme used in the X-005. Transfected cells were stimulated for 16 hours with the different stimuli that appear in the graphs (TNF-alpha, antibody monoclonal anti-TNF-alpha and different concentrations (5 and 10 micromolar) of the anionic sulfonate dendrimer). After different treatments, the transfected cells were collected by centrifugation and lysed with commercial tampon lysis “Dual-luciferase Assay System Kit” (Promega), according to the manufacturer's recommendations. The amount of protein in 5 μl of lysed cell was measured by the method of BSA-BCA (Pierce, Rockford, USA). Once quantified, the values of all the samples were normalized to 20 micrograms to measure the luciferase activity for about 10 seconds in a luminometer 1450 Microbeta Luminiscence Counter (Walax, Trilux). Luciferasa activity of firefly values are expressed as induction with respect to cells control. […]

The next data set relates to HIV-1 NL4.3. Kind of data set: PBMC pre-treatment / post-treatment infection inhibition. In kind it is cell-based. The procedure:
We used 2*10^5 stimulated PBMC cells dispensed in 200 μL of complete medium in round bottom wells of p96 plate. […] After this time, the wells were washed twice with PBS and were incubated in culture conditions. The viral concentration after 3 days was quantified by ELISA of p24.

The test system of data set [5] is PBMC. Kind of data set: LDH assay in PBMC. In kind it is cell-based, human. From the text: This technique (CytoTox 96® Non-Radioactive Cytotoxicity Assay) was used to test the damage in the cell membrane surface due to the presence of anionic peripheral groups of dendrimers. The lactate dehydrogenase (LDH) is an enzyme that is released into the […] due to cell lysis. The LDH assay, therefore, is a measure of membrane integrity, which is based on the […] and reduction of tetrazolium salts to formazan crystals by […].
1*10^5 cells/well were dispensed in 96-well plate round bottom in a volume of 100 μL of complete medium and the dendrimer was added in a volume of 100 μL, to obtain a final volume of 200 μL in the well. Controls: 1. 200 μL of complete medium without cells (background control), 2. 100 μL of cells+100 μL of complete medium, 3. 100 μL of cells+100 μL of Triton X-100 0.2% 4. 100 μL of cells+100 μL with the dendrimer to the desired concentration. Incubated in culture conditions during the first 24 h. Plate was centrifuged at 1500 rpm 10 minutes and removed 100 μL of supernatant, being careful not to take the cells. 100 μL of reaction mixture prepared at the time on the 100 μL was added of supernatant and incubated at room temperature for 30 minutes in darkness. Finally, measured at 490 nm and 690 nm reference. The cytotoxicity was obtained from the following formula: Cytotoxicity (%)=(4−2)/(3−2)*100

Data set [6] relates to PBMC. As to the kind of experiment: Lymphoproliferative assay (BrdU incorporation). Details: Mitogenic effect of dendrimer alone (BrdU incorporation): dose or concentration left out as unconfirmed.
Data set [7] concerns HIV-1 NL4.3 (X4 tropic) and HIV-1 BaL (R5 tropic). Kind of data set: Action mechanism: virus treated with dendrimer before exposure to PBMC. In kind it is cell-based. As to conditions: 10 μM, 4 days of culture. The procedure:
It was used for this experiment a 96 well plate of flat bottom with Poli-L-lysine (PLL, Sigma® covering the bottom of the well. For this purpose, 50 uL of PLL were incubated at 37° C. for one hour. After washing the wells three times with PBS, 4 ng of HIV were incubated overnight at 4° C., to ensure that the virus particles were adhered to the bottom of the well. Each well was washed three times with PBS to remove HIV not adhered to the plate and then each well was treated with different dendrimer concentrations for 1 h. Afterward, it was necessary to washed the product with PBS and PBMC previously stimulated were added. The supernatant of this cell culture was recovered after 4 days and p24 antigen was quantified by ELISA to assess the amount of HIV produced by the PBMC in different treatments. As positive control of lysis of the viral particles Triton x-100 (1%) was used.
After verifying the effectiveness of the dendrimer to block adherence and internalization of virus particles, we proceeded to try to understand the mechanism of action. To this end, we designed an experiment that consisted of exposing the viral particles to the presence of dendrimer, to then use this combination in stimulated PBMC cultures (prepared for the viral infection). […]

Data set [8] relates to PBMC. Kind of data set: MTT assay in PBMC. The class given is cell-based, human. As to conditions: 10 μM. The procedure: (§1) This method was selected to analyze detrimental intracellular effects on mitochondria and metabolic activity. The colorimetric MTT test, based on the selective ability of viable cells to reduce MTT to purple formazan, relies on intact metabolic activity and is frequently used for cytotoxicity screening. […] The concentration of formazan was then determined spectrophotometrically in a plate reader at a wavelength of 570 nm (test) and 690 nm (reference). The spectrophotometer was calibrated to zero absorbance by using Optimem medium without cells. The percentage cell viability relative to control wells (cells with no dendrimer) was calculated by ([A]test/[A]control)T100. […]

The next data set has as its system NF-kB (pNF-kB-luc). Kind of data set: Transfection of Jurkat cells with pNF-kB-luc plasmid. The class given is cell-based. The procedure: Inflammation experiments: the experiments were conducted with transient transfection using plasmid indicators pTNF-luc and pNF-κB-luc containing 3 copies in tandem of site NF-κB of the promoter. The Jurkat cell line was nucleofected with the AMAXA nucleofector following the commercial house protocol “cell line nucleofector kit V” and the specific programme used in the X-005. Transfected cells were stimulated for 16 hours with the different stimuli that appear in the graphs (TNF-alpha, antibody monoclonal anti-TNF-alpha and different concentrations (5 and 10 micromolar) of the anionic sulfonate dendrimer). […] The amount of protein in 5 μl of lysed cell was measured by the method of BSA-BCA (Pierce, Rockford, USA). Once quantified, the values of all the samples were normalized to 20 micrograms to measure the luciferase activity for about 10 seconds in a luminometer 1450 Microbeta Luminiscence Counter (Walax, Trilux). Luciferasa activity of firefly values are expressed as induction with respect to cells control.
Jurkat cells were transfected with the pNF-kB-luc plasmid, they were cultivated in the presence of sulfonate (10 micromolar) for 16 hours and the luciferasa activity was measured. […] The results presented are expressed as standardized induction index with the values of cell controls without treatment control and it is a representative of three independent experiments.

Data set [9] relates to HEC-1A (human endometrial epithelial cells). As to the kind of experiment: MTT assay in HEC-1A. As to conditions: up to 10 μM, FIG. 13A. In kind it is cell-based. The procedure: as §1

Take `Cc1ccc(C(=O)Nc2ccc(S(=O)(=O)O)c3cc(S(=O)(=O)O)cc(S(=O)(=O)O)c23)cc1NC(=O)c1cccc(NC(=O)Nc2cccc(C(=O)Nc3cc(C(=O)Nc4ccc(S(=O)(=O)O)c5cc(S(=O)(=O)O)cc(S(=O)(=O)O)c45)ccc3C)c2)c1` [Suramin, reference compound]: the “Decrease of p24 antigen in immature dendritic cells” value (from here on “Decrease of p24 antigen”) in data set [1] is on record as “significant”. Besides, the “Reduction of passage of viral particles through the monolayer” value in [2] (70 ng Bal virus, 1 h pretreatment, basolateral supernatant after 48 h, FIG. 20) is “lacks the inhibitory effect”. Moreover, the “Inhibitory effect on passage of viral particles through the monolayer” value in data set [2] (R5-tropic virus, positive control) is listed as “no inhibitory effect”. Besides, the LDH release entry in data set [3] (after an hour of contact) is on record as “did not show toxicity”.

In the case of G1-[Si(CH2)3N(CH2CH2SO3Na)2]8 [G2SF16], the “Promoter activity of the pTNF-luc plasmid” value in [4] is “two to three times lower”. For the same compound, the “Inhibition of infection, post-treatment” value in the data set with HIV-1 NL4.3 (PBMC infected first, then dendrimer) is recorded as 60%. The “Inhibition of infection, pre-treatment” value with HIV-1 NL4.3 (PBMC treated with dendrimer prior to infection by HIV-1 NL4.3) is on record as 80%. Also, the “Damage to the cell membrane (LDH)” value in the data set with PBMC [5] is reported as “low damage”. Further, the “Concentration from which toxicity was presented (LDH)” value in the data set with PBMC [5] (24 hours) is ≥ 10 µM. Further, in the data set on PBMC [6] (PBMC, 4 days), the “Effect on mitogenic effect of PHA, treatment at the same time as PHA” value is “slightly decreases the mitogenic effect” and the “Mitogenic effect of dendrimer alone (BrdU incorporation)” value is given as “no mitogenic effect”. Besides, the “BrdU incorporation in PBMC previously stimulated with PHA” value in the data set with PBMC [6] (PHA for 3 days, then 4 days of treatment, FIG. 4B) is listed as “decrease in BrdU incorporation; also recorded: inhibits the mitogenic effect of PHA”. Moreover, in data set [1], the “Decrease of p24 antigen” value was “significant” and the “p24 in the supernatant of macrophages” value was “clear decrease of p24”. For the same compound, the “HIV (p24) in supernatant of PBMC after virus treated with dendrimer” value in [7] is recorded as “low prevalence of HIV”. In addition, in [2] (5 μM, both X4 and R5 virus, basolateral supernatant at 24 and 48 hours), the “Reduction of passage of viral particles through the monolayer” value came to 40%. The “Mitochondrial activity (MTT)” value with PBMC [8] is “optimal mitochondrial activity”. In addition, the “Activity of the pNF-kB-luc plasmid” value with NF-kB (pNF-kB-luc) (10 micromolar, 16 hours) was “decrease in the activity of the pNF-kB-luc plasmid; also recorded: decreases the transcriptional activity of NF-kappa”. The “Induction of NF-kB-luc by TNF-alpha” value in the data set with NF-kB (pNF-kB-luc) (sulfonate + TNF-alpha) was “reversal of the induction of NF-kB-luc”.

Turning to “ck-G1-[Si(CH2)4(N3C2H)CH2N(CH2CH2COONa)2]8 [G2CKCOO16]”, the “Cell viability (MTT toxicity curve)” value in data set [9] is on record as “good cell viability”.

On to “ck-G1-[Si(CH2)4(N3C2H)CH2N(CH2PO(OMe)2)2]8 [G2CKP32]”, for which, in [9], the “Cell viability (MTT toxicity curve)” value is “good cell viability”.

On to dextran, for which the “LDH in the supernatant with regard to the control” value in [3] (24 hours of treatment) is on record as ~10%.

Turning to mannan [reference compound], the “Decrease of p24 antigen” value in data set [1] is listed as “significant”.
